Laboratory results taken from article PMC11302729, “Repurposing Hsp90 inhibitors as antimicrobials targeting two-component systems identifies compounds leading to loss of bacterial membrane integrity” (Microbiology Spectrum, 2024).
Values after ≈ are worked out from the molar mass of the structure shown. Values joined by “and” are separate entries in the source; they are usually repeats but may differ in a detail not shown here. Equal values may be shown once. Read-outs that look alike come from different tables or passages of the source. No end group written: not given here.

Experiments:
Type in all cases: cell-based
[1] = tested on: Staphylococcus aureus str. Newman; experiment: Minimal inhibitory concentration (microdilution) against S. aureus; conditions: for MIC S. aureus: Table ST3
Protocol: (§1) Staphylococcus aureus str. Newman, Enterococcus faecalis vanA (strain E0155), Enterococcus faecium vanA (strain E1654), Escherichia coli ATCC 25922, Escherichia coli D21f2 with a truncated LPS barrier, Escherichia coli JW5503 (ΔtolC) ([49]), Pseudomonas aeruginosa ATCC 27853, and Pasteurella haemolytica ATCC 29701 were grown in Mueller-Hinton Broth (MHB) (Oxoid, Basingstoke, UK) and incubated at 37°C.
(§2) The minimal inhibitory concentration was determined using the microdilution method following the guidelines of the European Committee on Antimicrobial Susceptibility Testing ([50]). Briefly, a series of twofold dilutions in MHB of each compound were made in a 96-well plate, with final concentrations ranging from 50 to 0.39 µg/mL in 100 µL final volume per well. A hundred microliters of 1:100 dilution of an overnight culture of the correspondent bacteria in MHB was added to each well. Plates were incubated for 18 hours at 37°C. MIC was recorded as the lowest concentration where no growth was detected as measured by optical density at 600 nm (OD600) using Spectramax M5 (Molecular Devices LLC, San Jose, CA, USA). […] Wells containing bacteria with or without 1% DMSO and medium alone were included as controls in every plate.

[2] = tested on: Pseudomonas aeruginosa ATCC 27853; experiment: MIC (microdilution) against P. aeruginosa; conditions: Pseudomonas aeruginosa
Protocol: as §1, §2

S. aureus str. Newman = experiment: Membrane permeability using SYTOX-Green, flow cytometry; conditions: for % FITC stained bacteria 0.5 xMIC: 0.5× MIC; for % FITC stained bacteria 1 xMIC / Loss of membrane integrity: 1× MIC; for Membrane damage: if considered to cause membrane damage to S. aureus
Protocol: S. aureus str. Newman was grown to exponential phase (OD600 = 0.4) in MHB media. […] Nisin (Sigma-Aldrich) and novobiocin (Sigma-Aldrich) were used as positive and negative controls for membrane permeabilization, and stained and unstained untreated controls were also included in each assay. After exposure, samples were centrifuged at 4,000 r.p.m. for 5 min and resuspended in PBS. Bacteria were dyed by adding the fluorescent nuclear stain SYTOX Green (Molecular Probes, Invitrogen) to a final concentration of 0.5 µM and incubating for 5 min in the dark. Samples were centrifuged again and resuspended with PBS to remove unbound stain. Three hundred microliters of each sample was transferred to a clean well in a 96-well clear-bottom plate (Corning Incorporated). Fluorescence was measured in CytoFLEX flow cytometer (Beckman Coulter, Brea, CA, USA) using the green (FITC) channel with the excitation wavelength at 488 nm. Overlay histograms were created with CytExpert Software (Beckman Coulter, Brea, CA, USA).

HEK293 cells = experiment: in vitro; conditions: LC50/MIC (HEK293 / S. aureus)
Protocol: (§3) HEK293 cells and the human hepatocellular carcinoma cells (HepG2) were routinely cultured in 75-cm^2 culture flasks (Corning Incorporated) on high-glucose Dulbecco’s modified Eagle medium (DMEM) containing glutaMax and phenol red (Gibco) supplemented with 1% penicillin/streptomycin (Gibco) and 10% fetal bovine serum (FBS) (Gibco). Cells were maintained at 37°C and 5% CO2.
(§4) Cytotoxicity assays with HEK293 and HepG2 cells were performed in 96-well plates seeded with 5 × 10^4 cells/well and incubated for 24 hours to reach 80%–90% confluency. Exterior wells were filled with only medium to prevent evaporation. Culture medium was removed from the cells, and 100 µL of exposure medium [high-glucose DMEM without phenol red (Gibco)] was added to avoid a potential interaction between FBS components or antibiotics and tested compounds. A twofold dilution series of compounds in exposure medium (range 100–3.2 μg/mL) was made in a separate 96-well plate, and 100 µL of each of these dilutions was added to the assay plates for 24 hours at 37°C in the presence of 5% CO2. Control wells contained cells with DMEM, DMEM + 1% DMSO (vehicle control), or DMEM + 20% DMSO. Wells without cells were also included as negative control. After exposure, the medium was replaced with 100 µL 10% Alamar Blue (Invitrogen) in exposure medium. After 45 min incubation at 37°C and 5% CO2, fluorescence was measured on a Spectramax M5 plate reader at λex = 541 nm, λem = 590 nm. Cell viability compared with the vehicle control was calculated, and inhibition curves for each compound were fitted (non-linear curve fit, four variables, bottom constrained = 0) in Prism 9 (GraphPad Software, San Diego, USA).

[3] = tested on: Escherichia coli JW5503 (ΔtolC); experiment: MIC (microdilution) against E. coli JW5503; conditions: Escherichia coli, read-out: MIC E. coli JW5503
From the text: (§5) We also tested the inhibitory activity of compounds in two different E. coli mutants: (i) E. coli JW5503 that lacks TolC efflux pumps and (ii) E. coli D21f2 that has a defective LPS inner core increasing permeability of the outer membrane. E. coli D21f2 has a slightly higher susceptibility to DPP compounds than E. coli ATCC25922.
as §1, §2

[4] = tested on: Escherichia coli ATCC 25922; experiment: MIC (microdilution) against E. coli; conditions: Escherichia coli
Protocol: as §1, §2

[5] = tested on: Enterococcus faecalis vanA (strain E0155); experiment: MIC (microdilution) against E. faecalis; conditions: Enterococcus faecalis, read-out: MIC E. faecalis
Protocol: as §1, §2

[6] = tested on: Pasteurella haemolytica ATCC 29701; experiment: MIC (microdilution) against P. haemolytica; conditions: Mannheimia haemolytica, ATCC29701, read-out: MIC P. haemolytica, Table ST1
Protocol: as §1, §2

[7] = tested on: Enterococcus faecium vanA (strain E1654); experiment: MIC (microdilution) against E. faecium; conditions: Enterococcus faecium, read-out: MIC E. faecium
Protocol: as §1, §2

in vitro = conditions: human
Protocol: as §3, §4

[8] = tested on: Escherichia coli D21f2 with a truncated LPS barrier; experiment: MIC (microdilution) against E. coli D21f2; conditions: read-out: MIC E coli D21f2
From the text: as §5, §1, §2

[9] = Staphylococcus aureus, NEWMAN, Fig 2
[10] = Staphylococcus aureus, NEWMAN, Fig 2, value in parentheses
[11] = Table ST3, value in parentheses
[12] = ATCC27853, Table ST1, read-out: MIC P. aeruginosa
[13] = ATCC25922, Table ST1, read-out: MIC E. coli

Row | Compound | MIC [1, 9] [µg/mL] | MIC [1, 10] [µM] | MIC S. aureus [1] [µg/mL] | MIC [1, 11] [µM] | MIC [2, 12] [µg/mL] | % FITC stained bacteria 0.5 xMIC (S. aureus str. Newman; 5 min exposure) [%] | % FITC stained bacteria 1 xMIC (S. aureus str. Newman; 5 min exposure) [%] | % FITC stained bacteria 2 xMIC (S. aureus str. Newman; 2× MIC, 5 min exposure) [%] | Selectivity Index (HEK293 cells) | MIC [3] [µg/mL] | MIC [4, 13] [µg/mL] | MIC [5] [µg/mL] | MIC [6] [µg/mL] | MIC [7] [µg/mL] | CC50 at 24 h (in vitro) | other results
1 | Oc1ccc(-c2[nH]nc(C(F)(F)F)c2-c2ccccc2)c(O)c1 [DPP-1] | 6.25 | 19.5 | 6.25 (≈ 19.5 µM) | 19.53 | > 250 | 30.46 | 39.72 | 46.63 | 0.65 | 1.56 (≈ 4.87 µM) | > 250 | 12.5 (≈ 39 µM) | 25 (≈ 78.1 µM) | 12.5 (≈ 39 µM) | – | Membrane damage (S. aureus str. Newman): YES
2 | Nisin: positive control for membrane permeabilization (ITSISLCTPGCKTGALMGCNMKTATCHCSIHVSK; ends and bridges not checked; also: lantibiotic nisin A: dehydrated residues and lanthionine rings not given here; UniProt P13068 24-57, looked up) [reference compound] | – | – | – | – | – | 16.37 | 53.32 | 59.41 | – | – | – | – | – | – | – | –
3 | COc1ccc(-c2c(C(F)(F)F)n[nH]c2-c2ccc(OCc3ccccc3)cc2O)cc1 [DPP-15] | 3.12 | 7.09 | 3.12 (≈ 7.08 µM) | 7.09 | > 250 | 9.29 | 13.68 | 18.42 | 3.10 | 3.12 (≈ 7.08 µM) | > 250 | 1.56 (≈ 3.54 µM) | > 250 | 1.56 (≈ 3.54 µM) | 9.64 µg/mL and 21.9 µM | Loss of membrane integrity (S. aureus str. Newman; 5 min exposure): did not cause significant loss of membrane integrity
4 | Cc1n[nH]c(-c2ccc(O)cc2O)c1-c1ccc(Cl)cc1 [DPP-9] | 25 | 83.3 | 25 (≈ 83.1 µM) | 83.33 | > 250 | 38.22 | 41.34 | 43.78 | 0.49 | 12.5 (≈ 41.6 µM) | > 250 | 25 (≈ 83.1 µM) | 25 (≈ 83.1 µM) | 25 (≈ 83.1 µM) | – | MIC [8]: 50 µg/mL (≈ 166 µM); Membrane damage (S. aureus str. Newman): YES
5 | COc1ccc(-c2[nH]nc(C)c2-c2ccc(Cl)cc2)c(O)c1 [DPP-10] | 25 | 79.4 | 25 (≈ 79.4 µM) | 79.37 | > 250 | 28.57 | 37.28 | 40.99 | 0.93 | 6.25 (≈ 19.9 µM) | > 250 | 250 (≈ 794 µM) | 62.5 (≈ 199 µM) | 250 (≈ 794 µM) | – | MIC [8]: 250 µg/mL (≈ 794 µM); Membrane damage (S. aureus str. Newman): YES
6 | Oc1cc(OCc2ccccc2)ccc1-c1[nH]nc(C(F)(F)F)c1-c1ccccc1 [DPP-4] | 1.56 | 3.8 | 1.56 (≈ 3.8 µM) | 3.80 | > 250 | 7.94 | 14.15 | 19.78 | 4.65 | 6.25 (≈ 15.2 µM) | > 250 | 3.12 (≈ 7.6 µM) | 125 (≈ 305 µM) | 3.12 (≈ 7.6 µM) | 7.26 µg/mL and 17.7 µM | MIC [8]: > 50 µg/mL; Loss of membrane integrity (S. aureus str. Newman; 5 min exposure): did not cause significant loss of membrane integrity
7 | CO[C@@H]1[C@@H](OC(N)=O)[C@@H](O)[C@H](Oc2ccc3c(O)c(NC(=O)c4ccc(O)c(CC=C(C)C)c4)c(=O)oc3c2C)OC1(C)C [Novobiocin, reference compound] | – | – | – | – | – | 8.28 | 12.62 | 13.17 | – | – | – | – | – | – | – | Effect on membrane integrity (S. aureus str. Newman; 2× MIC, 5 min exposure): no effect on membrane integrity
8 | COc1ccccc1-c1c(C(F)(F)F)n[nH]c1-c1ccc(O)cc1O [DPP-16] | 25 | 71.4 | 25 (≈ 71.4 µM) | 71.43 | > 250 | – | – | – | 0.65 | 3.13 (≈ 8.94 µM) | > 250 | 50 (≈ 143 µM) | 50 (≈ 143 µM) | 50 (≈ 143 µM) | 16.4 µg/mL and 46.7 µM | –
9 | COc1ccc(-c2[nH]nc(C(F)(F)F)c2-c2ccccc2OC)c(O)c1 [DPP-17] | 25 | 68.5 | 25 (≈ 68.6 µM) | 68.49 | – | – | – | – | 0.50 | 6.25 (≈ 17.2 µM) | – | – | 50 (≈ 137 µM) | > 250 | 12.6 µg/mL and 34.5 µM | MIC ([2]; ATCC27853, read-out: MIC P. aeruginosa): > 250 µg/mL; MIC ([4]; ATCC25922, read-out: MIC E. coli): > 250 µg/mL; MIC ([5]; 18 h): > 250 µg/mL
10 | COc1ccc(-c2[nH]nc(C(F)(F)F)c2-c2ccc(OC)c(OC)c2)c(O)c1 [DPP-19] | 25 | 63.3 | 25 (≈ 63.4 µM) | 63.29 | > 250 | – | – | – | 0.55 | 12.5 (≈ 31.7 µM) | > 250 | 50 (≈ 127 µM) | > 250 | 50 (≈ 127 µM) | 13.7 µg/mL and 34.6 µM | –
11 | COc1ccc(-c2c(C(F)(F)F)n[nH]c2-c2ccc(O)cc2O)cc1OC [DPP-18] | 50 | 132 | 50 (≈ 131 µM) | 131.58 | > 250 | – | – | – | 0.45 | 6.25 (≈ 16.4 µM) | > 250 | 50 (≈ 131 µM) | > 250 | 50 (≈ 131 µM) | 22.8 µg/mL and 60 µM | –
